The values below come from ChEMBL document CHEMBL5046241, “The novel therapeutic strategy of vilazodone-donepezil chimeras as potent triple-target ligands for the potential treatment of Alzheimer's disease with comorbid depression” (Eur J Med Chem, 2022).

For series [1], the target named is 5-hydroxytryptamine receptor 1B (Homo sapiens, UniProt P28222).
Description: Agonist activity at 5-HT1B receptor (unknown origin)
The target in series [2] is Sodium-dependent serotonin transporter (Homo sapiens, UniProt P31645). It is filed as cell-based, HEK293.
Series [3] deals with T1, 5-hydroxytryptamine receptor 1A (Homo sapiens, UniProt P08908).
T1 sequence (P08908 whole entry): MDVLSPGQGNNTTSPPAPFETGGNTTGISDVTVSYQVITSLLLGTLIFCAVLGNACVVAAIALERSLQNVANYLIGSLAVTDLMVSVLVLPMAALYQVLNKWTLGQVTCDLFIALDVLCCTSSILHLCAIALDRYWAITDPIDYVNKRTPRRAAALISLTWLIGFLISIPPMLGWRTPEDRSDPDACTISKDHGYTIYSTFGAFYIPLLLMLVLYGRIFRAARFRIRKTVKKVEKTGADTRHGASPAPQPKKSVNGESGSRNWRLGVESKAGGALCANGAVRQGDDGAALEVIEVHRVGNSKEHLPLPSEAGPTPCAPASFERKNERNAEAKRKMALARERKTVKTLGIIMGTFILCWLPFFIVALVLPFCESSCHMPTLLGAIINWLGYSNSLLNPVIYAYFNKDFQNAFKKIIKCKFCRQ
Description: Agonist activity at human 5-HT1A receptor expressed in HEK293 cells incubated for 60 mins by Eu-cAMP tracer based LANCE ultra cAMP assay

The next series concerns the target Cholinesterase (Mus musculus, UniProt Q03311).
A short description of series [4]: in vitro. Conditions: PAMPA.
Description: Permeability of compound by PAMPA-BBB assay
Series [5] deals with T2, Acetylcholinesterase (Mus musculus, UniProt P21836).
T2 sequence (P21836 whole entry): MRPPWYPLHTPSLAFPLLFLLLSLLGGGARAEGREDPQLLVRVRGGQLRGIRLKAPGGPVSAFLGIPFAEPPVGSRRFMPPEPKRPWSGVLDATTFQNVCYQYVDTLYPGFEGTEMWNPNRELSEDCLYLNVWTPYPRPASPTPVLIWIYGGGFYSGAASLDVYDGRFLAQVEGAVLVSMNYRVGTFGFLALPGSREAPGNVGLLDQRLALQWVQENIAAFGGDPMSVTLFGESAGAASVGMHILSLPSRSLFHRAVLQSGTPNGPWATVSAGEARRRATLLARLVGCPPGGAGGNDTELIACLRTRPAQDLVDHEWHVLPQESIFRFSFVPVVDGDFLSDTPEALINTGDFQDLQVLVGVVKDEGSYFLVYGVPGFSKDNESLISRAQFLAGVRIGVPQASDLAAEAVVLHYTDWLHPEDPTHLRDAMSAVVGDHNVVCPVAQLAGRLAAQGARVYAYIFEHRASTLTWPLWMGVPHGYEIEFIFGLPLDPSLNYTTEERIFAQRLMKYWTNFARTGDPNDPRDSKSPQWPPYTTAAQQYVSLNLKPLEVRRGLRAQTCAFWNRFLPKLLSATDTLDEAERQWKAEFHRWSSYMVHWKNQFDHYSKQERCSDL
The series can be described thus: biochemical.
Description: Inhibition of AChE in mouse cortical homogenate using acetylthiocholine iodide as substrate incubated for 20 mins by Ellman's method

Series [6] deals with T2, Acetylcholinesterase. The series is described as follows: Inhibition of mouse AChE assessed as inhibition constant using acetylthiocholine iodide as substrate measured every 2 mins by lineweaver-burk plot analysis.
Series [7] deals with Voltage-gated inwardly rectifying potassium channel KCNH2 (Homo sapiens, UniProt Q12809).
Sequence of Voltage-gated inwardly rectifying potassium channel KCNH2 (Q12809 whole entry): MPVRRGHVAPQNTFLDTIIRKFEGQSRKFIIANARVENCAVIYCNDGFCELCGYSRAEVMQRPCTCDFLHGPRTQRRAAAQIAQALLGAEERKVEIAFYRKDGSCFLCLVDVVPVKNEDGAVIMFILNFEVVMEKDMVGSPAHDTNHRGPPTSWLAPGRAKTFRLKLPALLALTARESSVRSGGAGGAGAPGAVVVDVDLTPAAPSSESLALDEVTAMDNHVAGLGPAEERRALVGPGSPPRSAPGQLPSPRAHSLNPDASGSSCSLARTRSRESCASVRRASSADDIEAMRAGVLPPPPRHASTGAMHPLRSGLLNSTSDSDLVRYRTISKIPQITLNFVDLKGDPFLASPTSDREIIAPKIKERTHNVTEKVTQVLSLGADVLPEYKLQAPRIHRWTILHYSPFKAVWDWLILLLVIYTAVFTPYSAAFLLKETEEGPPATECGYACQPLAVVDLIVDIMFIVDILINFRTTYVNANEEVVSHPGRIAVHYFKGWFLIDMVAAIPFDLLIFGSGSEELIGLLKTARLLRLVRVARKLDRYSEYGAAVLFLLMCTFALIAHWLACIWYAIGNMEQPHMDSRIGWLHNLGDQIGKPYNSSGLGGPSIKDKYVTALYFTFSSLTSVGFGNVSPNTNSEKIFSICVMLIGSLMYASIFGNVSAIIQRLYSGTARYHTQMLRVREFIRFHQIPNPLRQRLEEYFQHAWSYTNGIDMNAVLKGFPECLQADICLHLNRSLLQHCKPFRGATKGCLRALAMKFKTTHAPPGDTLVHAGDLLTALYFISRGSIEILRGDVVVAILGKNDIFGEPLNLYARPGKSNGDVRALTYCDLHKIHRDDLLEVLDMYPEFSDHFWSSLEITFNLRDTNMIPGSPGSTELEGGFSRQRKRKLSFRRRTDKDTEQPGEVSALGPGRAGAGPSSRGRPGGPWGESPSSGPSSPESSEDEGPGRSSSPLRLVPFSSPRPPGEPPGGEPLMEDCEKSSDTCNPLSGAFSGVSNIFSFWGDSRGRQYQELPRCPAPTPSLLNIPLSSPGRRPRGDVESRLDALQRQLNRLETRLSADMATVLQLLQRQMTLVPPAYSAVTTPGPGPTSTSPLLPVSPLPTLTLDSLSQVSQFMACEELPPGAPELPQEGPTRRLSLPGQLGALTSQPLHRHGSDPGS
Description: Inhibition of hERG expressed in CHO cells at -80 mV holding potential by automated patch clamp method
Series [8] concerns the target Acetylcholinesterase (Homo sapiens, UniProt P22303). The series is described as follows: Inhibition of […] using acetylthiocholine iodide as substrate incubated for 20 mins by Ellman's method. Further details: species or system Erythrocyte.
The target in series [9] is Sodium-dependent dopamine transporter (Homo sapiens, UniProt Q01959).
Sequence of Sodium-dependent dopamine transporter (Q01959 whole entry): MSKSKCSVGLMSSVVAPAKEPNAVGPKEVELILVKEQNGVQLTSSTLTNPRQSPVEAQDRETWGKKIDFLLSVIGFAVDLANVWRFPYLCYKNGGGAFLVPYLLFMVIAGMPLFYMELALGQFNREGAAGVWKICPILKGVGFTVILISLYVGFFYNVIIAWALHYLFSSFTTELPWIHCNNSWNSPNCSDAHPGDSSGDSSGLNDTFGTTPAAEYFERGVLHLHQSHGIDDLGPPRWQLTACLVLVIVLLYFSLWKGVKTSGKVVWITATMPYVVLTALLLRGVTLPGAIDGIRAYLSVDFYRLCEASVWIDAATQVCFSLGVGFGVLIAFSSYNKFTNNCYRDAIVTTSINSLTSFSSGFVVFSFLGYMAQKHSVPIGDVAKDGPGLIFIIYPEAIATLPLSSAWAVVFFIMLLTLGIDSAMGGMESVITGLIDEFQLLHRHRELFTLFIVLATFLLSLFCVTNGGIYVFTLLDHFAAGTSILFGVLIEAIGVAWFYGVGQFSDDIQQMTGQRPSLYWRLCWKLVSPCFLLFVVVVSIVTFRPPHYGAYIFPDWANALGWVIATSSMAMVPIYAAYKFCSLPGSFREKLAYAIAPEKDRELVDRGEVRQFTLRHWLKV
Description: Inhibition of dopamine transporter (unknown origin)
The nature of series [10]: in vitro. The settings on record: CD-1, mouse, microsomes.
A short description of series [11]: in vitro. The settings on record: Sprague-Dawley, rat, microsomes.
Series [12] can be described thus: in vitro. Conditions: Sprague-Dawley, rat, microsomes. The source holds these as a separate data set.
Series [13] is described as follows: in vitro. Conditions: CD-1, mouse, microsomes. The source holds these as a separate data set.
The target in series [14] is Sodium-dependent noradrenaline transporter (Homo sapiens, UniProt P23975).
Sequence of Sodium-dependent noradrenaline transporter (P23975 whole entry): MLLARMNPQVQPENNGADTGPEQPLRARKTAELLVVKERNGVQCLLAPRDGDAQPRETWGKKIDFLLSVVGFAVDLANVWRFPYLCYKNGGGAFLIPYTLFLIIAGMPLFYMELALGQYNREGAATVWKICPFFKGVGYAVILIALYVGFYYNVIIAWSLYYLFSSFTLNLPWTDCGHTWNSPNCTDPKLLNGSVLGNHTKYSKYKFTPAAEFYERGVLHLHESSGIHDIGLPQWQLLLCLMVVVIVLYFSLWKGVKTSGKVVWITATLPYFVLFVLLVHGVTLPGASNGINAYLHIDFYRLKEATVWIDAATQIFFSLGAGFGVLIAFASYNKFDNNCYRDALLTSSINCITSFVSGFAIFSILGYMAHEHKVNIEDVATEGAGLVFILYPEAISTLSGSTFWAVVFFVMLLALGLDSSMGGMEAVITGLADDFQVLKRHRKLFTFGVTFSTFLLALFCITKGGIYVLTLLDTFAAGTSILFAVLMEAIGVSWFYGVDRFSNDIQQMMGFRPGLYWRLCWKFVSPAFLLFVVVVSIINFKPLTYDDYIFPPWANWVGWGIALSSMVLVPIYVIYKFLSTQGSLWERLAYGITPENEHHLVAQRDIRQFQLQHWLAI
Description: Inhibition of norepinephrine transporter (unknown origin)

Sequence of Cholinesterase (Q03311 whole entry): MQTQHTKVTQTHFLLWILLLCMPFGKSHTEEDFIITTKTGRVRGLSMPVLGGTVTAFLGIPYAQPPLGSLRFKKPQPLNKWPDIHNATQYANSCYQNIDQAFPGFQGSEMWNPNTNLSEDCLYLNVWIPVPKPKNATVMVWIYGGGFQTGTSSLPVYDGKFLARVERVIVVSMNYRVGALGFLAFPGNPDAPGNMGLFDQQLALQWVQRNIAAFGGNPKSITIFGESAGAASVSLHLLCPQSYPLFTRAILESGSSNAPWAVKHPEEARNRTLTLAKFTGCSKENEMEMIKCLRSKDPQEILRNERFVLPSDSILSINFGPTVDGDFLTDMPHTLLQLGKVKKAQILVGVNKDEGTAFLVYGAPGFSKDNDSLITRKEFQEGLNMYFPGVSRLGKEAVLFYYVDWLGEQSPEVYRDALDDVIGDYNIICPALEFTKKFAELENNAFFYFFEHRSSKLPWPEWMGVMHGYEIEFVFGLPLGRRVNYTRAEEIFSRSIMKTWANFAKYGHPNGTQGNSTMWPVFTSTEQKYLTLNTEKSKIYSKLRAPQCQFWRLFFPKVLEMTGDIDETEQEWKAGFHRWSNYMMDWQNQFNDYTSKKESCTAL
Sequence of 5-hydroxytryptamine receptor 1B (P28222 whole entry): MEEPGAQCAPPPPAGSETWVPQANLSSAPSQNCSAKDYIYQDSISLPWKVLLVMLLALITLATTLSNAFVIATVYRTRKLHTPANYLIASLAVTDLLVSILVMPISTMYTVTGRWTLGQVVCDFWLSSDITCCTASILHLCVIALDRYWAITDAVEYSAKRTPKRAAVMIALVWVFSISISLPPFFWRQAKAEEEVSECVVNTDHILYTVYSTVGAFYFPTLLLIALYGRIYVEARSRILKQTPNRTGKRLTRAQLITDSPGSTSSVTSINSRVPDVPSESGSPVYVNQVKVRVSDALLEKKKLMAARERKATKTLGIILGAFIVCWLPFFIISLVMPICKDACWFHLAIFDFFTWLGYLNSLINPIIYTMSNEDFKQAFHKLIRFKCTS
Sequence of Sodium-dependent serotonin transporter (P31645 whole entry): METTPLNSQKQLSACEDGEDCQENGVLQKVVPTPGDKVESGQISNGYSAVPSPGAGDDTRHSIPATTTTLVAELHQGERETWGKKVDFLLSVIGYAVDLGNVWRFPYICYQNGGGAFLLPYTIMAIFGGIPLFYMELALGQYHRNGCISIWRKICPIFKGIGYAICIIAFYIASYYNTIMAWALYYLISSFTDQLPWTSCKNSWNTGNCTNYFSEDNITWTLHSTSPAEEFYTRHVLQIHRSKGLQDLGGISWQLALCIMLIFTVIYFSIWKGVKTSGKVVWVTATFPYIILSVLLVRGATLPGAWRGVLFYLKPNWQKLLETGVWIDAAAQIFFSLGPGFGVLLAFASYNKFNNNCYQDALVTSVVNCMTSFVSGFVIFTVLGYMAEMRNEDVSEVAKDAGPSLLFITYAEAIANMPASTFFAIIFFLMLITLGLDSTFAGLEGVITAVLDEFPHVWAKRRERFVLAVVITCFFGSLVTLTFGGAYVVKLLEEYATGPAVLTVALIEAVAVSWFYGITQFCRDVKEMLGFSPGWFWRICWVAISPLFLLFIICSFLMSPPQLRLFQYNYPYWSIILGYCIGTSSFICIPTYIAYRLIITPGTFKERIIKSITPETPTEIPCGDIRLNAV
Sequence of Acetylcholinesterase (Homo sapiens, UniProt P22303) (P22303 whole entry): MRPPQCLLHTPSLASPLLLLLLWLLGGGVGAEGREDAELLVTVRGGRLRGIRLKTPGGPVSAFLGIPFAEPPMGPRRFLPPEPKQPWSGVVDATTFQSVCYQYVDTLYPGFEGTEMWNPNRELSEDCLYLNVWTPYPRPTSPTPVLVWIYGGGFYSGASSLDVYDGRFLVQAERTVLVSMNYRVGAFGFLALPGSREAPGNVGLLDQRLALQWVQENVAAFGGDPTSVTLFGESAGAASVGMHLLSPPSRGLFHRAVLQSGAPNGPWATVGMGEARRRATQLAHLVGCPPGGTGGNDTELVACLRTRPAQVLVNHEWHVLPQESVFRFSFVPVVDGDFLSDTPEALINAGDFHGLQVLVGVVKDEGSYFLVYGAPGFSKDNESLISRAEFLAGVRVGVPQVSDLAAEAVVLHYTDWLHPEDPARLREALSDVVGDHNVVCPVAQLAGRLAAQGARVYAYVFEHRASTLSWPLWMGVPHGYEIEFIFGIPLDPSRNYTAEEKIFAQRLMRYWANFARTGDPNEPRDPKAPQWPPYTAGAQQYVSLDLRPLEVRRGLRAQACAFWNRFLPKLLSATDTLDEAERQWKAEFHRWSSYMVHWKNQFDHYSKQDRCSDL

In series [1], `CN1CCC[C@@H]1Cc1c[nH]c2ccc(CCS(=O)(=O)c3ccccc3)cc12` registered an EC50 of 11.6 nM.

For the compound `N#Cc1ccc2[nH]cc(CCN3CCN(c4ccc(C(=O)CCC5CCN(Cc6cc[nH]c6)CC5)cc4)CC3)c2c1`, the values for the IC50 (in [2]; on Cholinesterase; at Acetylcholinesterase [5]) were 8.41 nM, 3570 nM and 3.54 nM, respectively. In addition, the EC50 in [3] was greater than 1000 nM. This compound also registered an apparent permeability coefficient (Papp) in the series “in vitro [4]” of 3.15 ×10⁻⁶ cm/s.

For the compound `N#Cc1ccc2[nH]cc(CCN3CCN(c4ccc5c(c4)CC(CC4CCN(Cc6ccccc6)CC4)C5=O)CC3)c2c1` (stereo unspecified), the concentration for half-maximal inhibition (IC50) was found to be 8.81 nM in series [2], 638 nM on Cholinesterase and 8.7 nM against Acetylcholinesterase [5]. The same compound came in with an EC50 in series [3] greater than 1000 nM. This compound yielded a Papp in the series “in vitro [4]” of 4.16 ×10⁻⁶ cm/s.

On to `N#Cc1ccc2[nH]cc(CCCCN3CCN(c4ccc(C(=O)CCC5CCN(Cc6ccoc6)CC5)cc4)CC3)c2c1`, for which the IC50 worked out at 35.7 nM in series [2], 2730 nM on Cholinesterase and 8.95 nM on Acetylcholinesterase [5]. The compound further showed an EC50 in [3] of 19 nM. Further, the Papp in “in vitro [4]” is 4.68 ×10⁻⁶ cm/s.

Take `N#Cc1ccc2[nH]cc(CN3CCN(c4ccc5c(c4)CC(CC4CCN(Cc6ccccc6)CC4)C5=O)CC3)c2c1` (stereo unspecified): the IC50 in series [2] came out at 15.9 nM; against Cholinesterase, 498 nM; on Acetylcholinesterase [5], 6.68 nM. The same compound showed an EC50 in series [3] greater than 1000 nM. The Papp in the series “in vitro [4]” was determined as 3.61 ×10⁻⁶ cm/s.

For the compound `N#Cc1ccc2[nH]cc(CCCCN3CCN(c4ccc(C(=O)CCC5CCN(Cc6cc[nH]c6)CC5)cc4)CC3)c2c1`, the 50% inhibitory concentration (IC50) in series [2] was determined as 8.25 nM; at Cholinesterase, 2000 nM; at Acetylcholinesterase [5], 3.94 nM. This compound also had an EC50 in [3] of 22.2 nM. Also, the Papp in the series “in vitro [4]” amounted to 4.77 ×10⁻⁶ cm/s.

Take `N#Cc1ccc2[nH]cc(CCCCN3CCN(c4ccc(C(=O)CCC5CCN(Cc6ccccc6)CC5)cc4)CC3)c2c1`: the IC50 in series [2] was 29.2 nM; against Cholinesterase it was 2180 nM; in series [7], greater than 40000 nM; on Acetylcholinesterase [8], 0.58 nM; in series [9], 1040 nM; at Acetylcholinesterase [5], 2.29 nM. Besides, the EC50 was 58.6 nM in [3] and greater than 30000 nM in series [1]. In addition, the inhibition constant (Ki) on Acetylcholinesterase [6] came to 1.16 nM.

On to `N#Cc1ccc2[nH]cc(CCCN3CCN(c4ccc(C(=O)CCC5CCN(Cc6ccccc6)CC5)cc4)CC3)c2c1`, for which the results for the concentration for half-maximal inhibition (IC50) (in series [2]; against Cholinesterase; at Acetylcholinesterase [5]) were 39.9 nM, 1490 nM and 2.18 nM, respectively. The same compound returned an EC50 in series [3] of 65.5 nM. Moreover, the Papp in the series “in vitro [4]” came to 4.38 ×10⁻⁶ cm/s.

For the compound `N#Cc1ccc2[nH]cc(CN3CCN(c4ccc(C(=O)CCC5CCN(Cc6ccsc6)CC5)cc4)CC3)c2c1`, the half-maximal inhibitory concentration (IC50) in series [2] turned out to be 75.2 nM; against Cholinesterase it was 902 nM; against Acetylcholinesterase [5], 2.35 nM. In addition, in series [3], the EC50 was greater than 1000 nM. The compound also came in with a Papp in the series “in vitro [4]” of 5.25 ×10⁻⁶ cm/s.

In the case of `N#Cc1ccc2[nH]cc(CCN3CCN(c4ccc(C(=O)CCC5CCN(Cc6ccsc6)CC5)cc4)CC3)c2c1`, the IC50 in [2] was determined as 33.5 nM; at Cholinesterase, 1860 nM; against Acetylcholinesterase [5], 2.56 nM. The same compound displayed an EC50 in [3] greater than 1000 nM. In the series “in vitro [4]”, this compound yielded a Papp of 4.77 ×10⁻⁶ cm/s.

Turning to `N#Cc1ccc2[nH]cc(CN3CCN(c4ccc(C(=O)CCC5CCN(Cc6ccccc6)CC5)cc4)CC3)c2c1`, the IC50 in [2] turned out to be 54.5 nM; on Cholinesterase, 979 nM; on Acetylcholinesterase [5] it was 6.43 nM. In [3], this compound came in with an EC50 greater than 1000 nM. The compound further showed a Papp in the series “in vitro [4]” of 3.67 ×10⁻⁶ cm/s.

On to `N#Cc1ccc2[nH]cc(CCCCN3CCN(c4ccc(C(=O)CCC5CCN(Cc6ccsc6)CC5)cc4)CC3)c2c1`, for which the IC50 in series [2] stood at 20.1 nM; against Cholinesterase it was 883 nM; at Acetylcholinesterase [5] it was 3.01 nM. Also, a half-maximal effect in series [3] (EC50) was put at 66.6 nM. Moreover, the Papp in “in vitro [4]” stood at 4.62 ×10⁻⁶ cm/s.

`N#Cc1ccc2[nH]cc(CN3CCN(c4ccc(C(=O)CCC5CCN(Cc6cc[nH]c6)CC5)cc4)CC3)c2c1`: the IC50 worked out at 12.1 nM in series [2], 1150 nM at Cholinesterase and 3.42 nM on Acetylcholinesterase [5]. Also, the EC50 in series [3] was greater than 1000 nM. Also, the apparent permeability coefficient (Papp) in “in vitro [4]” stood at 3.17 ×10⁻⁶ cm/s.

For the compound `N#Cc1ccc2[nH]cc(CCCCN3CCN(c4ccc(C(=O)CCC5CCN(Cc6cccnc6)CC5)cc4)CC3)c2c1`, the 50% inhibitory concentration (IC50) in series [2] was 16.2 nM; against Cholinesterase, 4590 nM; against Acetylcholinesterase [5], 7.98 nM. Further, the EC50 in series [3] came out at 22 nM. Also, in the series “in vitro [4]”, the Papp stood at 4.43 ×10⁻⁶ cm/s.

Take `N#Cc1ccc2[nH]cc(CCCN3CCN(c4ccc5c(c4)CC(CC4CCN(Cc6ccccc6)CC4)C5=O)CC3)c2c1` (stereo unspecified): the IC50 in [2] turned out to be 18.4 nM; at Cholinesterase, 551 nM; on Acetylcholinesterase [5], 4.38 nM. The compound further had an EC50 in series [3] of 316 nM. This compound came in with a Papp in the series “in vitro [4]” of 3.55 ×10⁻⁶ cm/s.

As to `COc1cc2c(cc1OC)C(=O)C(CC1CCN(Cc3ccccc3)CC1)C2` (stereo unspecified) [DONEPEZIL], the microsomal CLint at […] in “in vitro [10]” is 34.8 µL/min/mg; in “in vitro [11]” it was less than 9.6 µL/min/mg. Also, the half-life at […] is greater than 145 min in “in vitro [12]” and 46 min in “in vitro [13]”.

`C[C@]12CC[C@H]3[C@@H](CCC4=CC(=O)CC[C@@]43C)[C@@H]1CC[C@@H]2O` [TESTOSTERONE]: the microsomal CLint at […] in the series “in vitro [10]” is 189 µL/min/mg; in “in vitro [11]”, 597 µL/min/mg.

In the case of `N#Cc1ccc2[nH]cc(CCCCN3CCN(c4ccc5oc(C(N)=O)cc5c4)CC3)c2c1` [VILAZODONE], the microsomal CLint at […] in “in vitro [10]” was 30.1 µL/min/mg; in the series “in vitro [11]”, 31.6 µL/min/mg. For the same compound, the IC50 in [7] came out at 5550 nM; in [9], 295 nM; in series [14], 158 nM; against Acetylcholinesterase [5], 21300 nM. In “in vitro [4]”, this compound gave a Papp of 10.8 ×10⁻⁶ cm/s. For the same compound, in [1], the EC50 is greater than 30000 nM. Moreover, the half-life at […] turned out to be 43.8 min in the series “in vitro [12]” and 39.8 min in the series “in vitro [13]”.
